{
  "source": "patent US20120129870A1",
  "about": "“PIPERAZINYL DERIVATIVES USEFUL AS MODULATORS OF THE NEUROPEPTIDE Y2 RECEPTOR” (priority 2007, published 2012)",
  "data": [
    {"target": "T1, NPY Y2 receptor (Homo sapiens, UniProt P49146)", "T1 sequence (P49146 1-381)": "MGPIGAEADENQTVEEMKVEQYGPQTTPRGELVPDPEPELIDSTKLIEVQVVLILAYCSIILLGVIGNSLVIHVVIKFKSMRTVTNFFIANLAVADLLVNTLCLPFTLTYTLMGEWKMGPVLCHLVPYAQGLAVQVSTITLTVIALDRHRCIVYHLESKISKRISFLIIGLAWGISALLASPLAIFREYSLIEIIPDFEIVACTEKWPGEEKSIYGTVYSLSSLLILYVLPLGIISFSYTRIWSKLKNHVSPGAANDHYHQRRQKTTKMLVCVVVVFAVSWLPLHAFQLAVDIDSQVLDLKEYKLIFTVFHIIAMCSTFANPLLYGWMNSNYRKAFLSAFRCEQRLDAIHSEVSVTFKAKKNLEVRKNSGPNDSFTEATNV", "assay": "Neuropeptide Y2 radioligand binding assay ([125I]PYY, KAN-Ts membranes)", "set-up": "endogenous in cells; host or cells: KAN-Ts cells (membrane preparation)", "details": "KAN-Ts membranes endogenously expressing Y2, [125I]PYY (80 pM), 1 h at rt", "method": "(§1) KAN-Ts endogenously expressing Y2 receptors were used for the radioligand binding assay. Cells were grown to confluence on 150 cm^2 tissue culture plates, washed with phosphate-buffered saline (PBS), and scraped into 50 mL tubes. After centrifugation, the supernatant was aspirated, and the pellets frozen and stored at −80° C. Thawed pellets were homogenized with a polytron tissue grinder for 15 sec in 20 mM Tris-HCl, 5 mM EDTA. The homogenate was centrifuged at 800×g for 5 min and the collected supernatant was recentrifuged at 25000×g for 25 min. The resulting pellet was resuspended in binding buffer (20 mM HEPES, 120 mM NaCl, 0.22 mM KH2PO4, 1.3 mM CaCl2, 0.8 mM MgSO4). Membranes were incubated with [^125I]PYY (80 pM) in the presence or absence of test compound for 1 h at rt. The reaction was stopped by filtration through GF/C filter plates pre-soaked in 0.3% polyethylenimine and subsequently washed with Tris 50 mM, 5 mM EDTA buffer. Plates were dried for 1 h in a 55° C. oven, scintillation fluid was added and the radioactivity was counted in a Packard TopCount. Specific binding to the NPY receptor subtypes was determined by radioactivity that was bound in the presence of […]. Each binding experiment was repeated three to eight times, each in duplicate. IC50 values (i.e. concentration of unlabelled peptide or antagonist required to compete for 50% of specific binding to the radioligand) were calculated using the GraphPad Prism software (GraphPad Software Inc., San Diego Calif.) with a fit to a sigmoidal dose response curve. Apparent K, values were calculated as Ki=IC50/(1+C/KD), where C is concentration of the radioligand.", "units": {"IC50": "nM"}, "values": [
      {"smiles": "O=C(NCc1ccc(N2CCN(C(c3ccccc3)c3ncco3)CC2)c(F)c1)C1CC1", "note": "(stereo not drawn) [Compound 171, Cyclopropanecarboxylic acid 3-fluoro-4-[4-(oxazol-2-yl-phenyl-methyl)-piperazin-1-yl]-benzylamide]", "IC50": "> 10000"},
      {"smiles": "CCC(CC)C(=O)Nc1ccc(N2CCN(C(c3ccc(F)cc3)C3CCC3)CC2)c(F)c1", "note": "(stereo not drawn) [Compound 106, N-(4-{4-[Cyclobutyl-(4-fluoro-phenyl)-methyl]-piperazin-1-yl}-3-fluoro-phenyl)-2-ethyl-butyramide]", "IC50": 250},
      {"smiles": "CCC(CC)C(=O)Nc1ccc(N2CCN(C(c3ccc(C#N)cc3)c3ncco3)CC2)c(F)c1", "note": "(stereo not drawn) [Compound 146, N-(4-{4-[(4-Cyano-phenyl)-oxazol-2-yl-methyl]-piperazin-1-yl}-3-fluoro-phenyl)-2-ethyl-butyramide]", "IC50": 260},
      {"smiles": "CC(C)C(=O)Nc1ccc(N2CCN(C(c3ccccc3)c3ncco3)CC2)c(F)c1", "note": "(stereo not drawn) [Compound 72, N-{3-Fluoro-4-[4-(oxazol-2-yl-phenyl-methyl)-piperazin-1-yl]-phenyl}-isobutyramide]", "IC50": 320},
      {"smiles": "O=C(Nc1ccc(N2CCN(C(c3ccccc3)c3ncco3)CC2)c(F)c1)C1CCCCC1", "note": "(stereo not drawn) [Compound 107, Cyclohexanecarboxylic acid {3-fluoro-4-[4-(oxazol-2-yl-phenyl-methyl)-piperazin-1-yl]-phenyl}-amide]", "IC50": 1200},
      {"smiles": "O=C(Nc1ccc(N2CCN(C(c3ccccc3)c3ccccc3)CC2)c(F)c1)[C@H]1CCOC1", "note": "(stereo in doubt) [Compound 14, Tetrahydro-furan-3-carboxylic acid [4-(4-benzhydryl-piperazin-1-yl)-3-fluoro-phenyl]-amide]", "IC50": 80},
      {"smiles": "Cc1cc(NC(=O)C2CCC2)ccc1N1CCN(C(c2ccccc2)c2ncco2)CC1", "note": "(stereo not drawn) [Compound 76, Cyclobutanecarboxylic acid {3-methyl-4-[4-(oxazol-2-yl-phenyl-methyl)-piperazin-1-yl]-phenyl}-amide]", "IC50": 1400},
      {"smiles": "CCC(CC)C(=O)Nc1ccc(N2CCN(C(c3ccccc3)C3C(C)C3(Cl)Cl)CC2)c(F)c1", "note": "(stereo not drawn) [Compound 115, N-(4-{4-[(2,2-Dichloro-3-methyl-cyclopropyl)-phenyl-methyl]-piperazin-1-yl}-3-fluoro-phenyl)-2-ethyl-butyramide]", "IC50": 450},
      {"smiles": "Cc1cc(NC(=O)C2CC2)ccc1N1CCN(C(c2ccccc2)c2ncco2)CC1", "note": "(stereo not drawn) [Compound 81, Cyclopropanecarboxylic acid {3-methyl-4-[4-(oxazol-2-yl-phenyl-methyl)-piperazin-1-yl]-phenyl}amide]", "IC50": 1700},
      {"smiles": "Cc1ccccc1Nc1ccc(N2CCN(C(c3ccccc3)c3ncco3)CC2)c(F)c1", "note": "(stereo not drawn) [Compound 63, {3-Fluoro-4-[4-(oxazol-2-yl-phenyl-methyl)-piperazin-1-yl]-phenyl}-o-tolyl-amine]", "IC50": 710},
      {"smiles": "Cc1cc(NC(=O)C(C)C)ccc1N1CCN(C(c2ccccc2)c2ncco2)CC1", "note": "(stereo not drawn) [Compound 74, N-{3-Methyl-4-[4-(oxazol-2-yl-phenyl-methyl)-piperazin-1-yl]-phenyl}-isobutyramide]", "IC50": 2600},
      {"smiles": "CCCC(=O)Nc1ccc(N2CCN(C(c3ccccc3)c3ncco3)CC2)c(C#N)c1", "note": "(stereo not drawn) [Compound 98, N-{3-Cyano-4-[4-(oxazol-2-yl-phenyl-methyl)-piperazin-1-yl]-phenyl}-butyramide]", "IC50": 180},
      {"smiles": "Cn1ccnc1Nc1ccc(N2CCN(C(c3ccccc3)c3ncco3)CC2)c(F)c1", "note": "(stereo not drawn) [Compound 58, {3-Fluoro-4-[4-(oxazol-2-yl-phenyl-methyl)-piperazin-1-yl]-phenyl}-(1-methyl-1H-imidazol-2-yl)-amine]", "IC50": "> 10000"},
      {"smiles": "CCC(CC)C(=O)Nc1ccc(N2CCN(C(C#N)c3ccccc3C#N)CC2)c(F)c1", "note": "(stereo not drawn) [Compound 136, N-(4-{4-[Cyano-(2-cyano-phenyl)-methyl]-piperazin-1-yl}-3-fluoro-phenyl)-2-ethyl-butyramide]", "IC50": 9800},
      {"smiles": "CCC(CC)C(=O)Nc1ccc(N2CCN(C(c3ccc(OC)cc3)C3CC3)CC2)c(F)c1", "note": "(stereo not drawn) [Compound 84, N-(4-{4-[Cyclopropyl-(4-methoxy-phenyl)-methyl]-piperazin-1-yl}-3-fluoro-phenyl)-2-ethyl-butyramide]", "IC50": 290},
      {"smiles": "O=C(NC1CCCC1)c1ccc(N2CCN(C(c3ccccc3)c3ncco3)CC2)c(F)c1", "note": "(stereo not drawn) [Compound 49, N-Cyclopentyl-3-fluoro-4-[4-(oxazol-2-yl-phenyl-methyl)-piperazin-1-yl]-benzamide]", "IC50": "> 10000"},
      {"smiles": "Cc1cccnc1Nc1ccc(N2CCN(C(c3ccccc3)c3ncco3)CC2)c(F)c1", "note": "(stereo not drawn) [Compound 57, {3-Fluoro-4-[4-(oxazol-2-yl-phenyl-methyl)-piperazin-1-yl]-phenyl}-(3-methyl-pyridin-2-yl)-amine]", "IC50": "> 10000"},
      {"smiles": "CC(C)C(=O)Nc1ccc(N2CCN(C(c3ccccc3)c3ncco3)CC2)c(C#N)c1", "note": "(stereo not drawn) [Compound 87, N-{3-Cyano-4-[4-(oxazol-2-yl-phenyl-methyl)-piperazin-1-yl]-phenyl}-isobutyramide]", "IC50": 54},
      {"smiles": "N#Cc1cc(NC(=O)C2CCC2)ccc1N1CCN(C(c2ccccc2)c2ncco2)CC1", "note": "(stereo not drawn) [Compound 95, Cyclobutanecarboxylic acid {3-cyano-4-[4-(oxazol-2-yl-phenyl-methyl)-piperazin-1-yl]-phenyl}-amide]", "IC50": 100},
      {"smiles": "CC(=O)Nc1ccc(N2CCN(C(c3ccccc3)c3ncco3)CC2)c(C#N)c1", "note": "(stereo not drawn) [Compound 103, N-{3-Cyano-4-[4-(oxazol-2-yl-phenyl-methyl)-piperazin-1-yl]-phenyl}-acetamide]", "IC50": "> 10000"},
      {"smiles": "CCC(CC)C(=O)Nc1ccc(N2CCN(C(c3ncco3)C3CCCC3)CC2)c(F)c1", "note": "(stereo not drawn) [Compound 117, N-{4-[4-(Cyclopentyl-oxazol-2-yl-methyl)-piperazin-1-yl]-3-fluoro-phenyl}-2-ethyl-butyramide]", "IC50": 310},
      {"smiles": "CCC(CC)C(=O)Nc1ccc(N2CCN(C(c3ccccc3)c3noc(C(F)(F)F)n3)CC2)c(F)c1", "note": "(stereo not drawn) [Compound 234, 2-Ethyl-N-(3-fluoro-4-{4-[phenyl-(5-trifluoromethyl-[1,2,4]-oxadiazol-3-yl)-methyl]-piperazin-1-yl}-phenyl)-butyramide]", "IC50": 120},
      {"smiles": "CCC(CC)C(=O)Nc1ccc(N2CCN(C(C3=N[C@H](C(=O)OC)CO3)c3ccccc3)CC2)c(F)c1", "note": "(stereo partly drawn) [Compound 179, 2-({4-[4-(2-Ethyl-butyrylamino)-2-fluoro-phenyl]-piperazin-1-yl}-phenyl-methyl)-4,5-dihydro-oxazole-4-carboxylic acid methyl ester]", "IC50": 41},
      {"smiles": "CCC(CC)C(=O)Nc1ccc(N2CCN(C(C(C)=O)c3ccccc3)CC2)c(F)c1", "note": "(stereo not drawn) [Compound 232, 2-Ethyl-N-{3-fluoro-4-[4-(2-oxo-1-phenyl-propyl)-piperazin-1-yl]-phenyl}-butyramide]", "IC50": 380},
      {"smiles": "O=C(Nc1ccc(N2CCN(C(c3ccccc3)c3ncco3)CC2)c(F)c1)[C@@H]1CCOC1", "note": "(stereo in doubt) [Compound 92, Tetrahydro-furan-3-carboxylic acid {3-fluoro-4-[4-(oxazol-2-yl-phenyl-methyl)-piperazin-1-yl]-phenyl}-amide]", "IC50": 270}
    ]},
    {"target": "T1, NPY Y2 receptor", "assay": "Neuropeptide Y2 radioligand binding assay ([125I]PYY, KAN-Ts membranes)", "set-up": "endogenous in cells; host or cells: KAN-Ts cells (membrane preparation)", "details": "apparent Ki=IC50/(1+C/KD)", "method": "as §1", "units": {"Ki": "nM"}, "values": [
      {"smiles": "N#Cc1cc(NC(=O)C2CC2)ccc1N1CCN(C(c2ccccc2)c2ccncc2)CC1", "note": "(stereo not drawn) [Compound 322, Cyclopropanecarboxylic acid {3-cyano-4-[4-(phenyl-pyridin-4-yl-methyl)-piperazin-1-yl]-phenyl}-amide]", "Ki": 34},
      {"smiles": "CN(C)CC(=O)Nc1ccc(N2CCN(C(c3ccccc3)c3ccccc3)CC2)c(C#N)c1", "note": "[Compound 300, N-[4-(4-Benzhydryl-piperazin-1-yl)-3-cyano-phenyl]-2-dimethylamino-acetamide]", "Ki": 250},
      {"smiles": "Cc1noc(C)c1C(=O)Nc1ccc(N2CCN(C(c3ccccc3)c3ccc(Cl)cc3)CC2)c(C#N)c1", "note": "(stereo not drawn) [Compound 312, 3,5-Dimethyl-isoxazole-4-carboxylic acid (4-{4-[(4-chloro-phenyl)-phenyl-methyl]-piperazin-1-yl}-3-cyano-phenyl)-amide]", "Ki": 84},
      {"smiles": "CCC(CC)C(=O)Nc1ccc(N2CCN(C(c3ccccc3)c3ccc(Cl)cc3)CC2)c(C#N)c1", "note": "(stereo not drawn) [Compound 311, N-(4-{4-[(4-Chloro-phenyl)-phenyl-methyl]-piperazin-1-yl}-3-cyano-phenyl)-2-ethyl-butyramide]", "Ki": 63},
      {"smiles": "CCC(CC)C(=O)Nc1ccc(N2CCN(C(c3ccc(F)cc3)c3ccc(F)cc3)CC2)c(C#N)c1", "note": "[Compound 307, N-(4-{4-[Bis(4-fluorophenyl)methyl]piperazin-1-yl}-3-cyanophenyl)-2-ethylbutanamide]", "Ki": 150}
    ]}
  ]
}
